Measured values reported in US9611263B2, “Compounds that modulate intracellular calcium” (CALCIMEDICA, INC., priority 2013, dated 2017).

How the values were obtained:
STIM1 and Orai1 = STIM1 and Orai1 (Homo sapiens, UniProt Q96D31); details: HEK293 cells co-expressing STIM1 and Orai1; cited from earlier work
Jurkat cells [1] = details: cited from earlier work
Jurkat cells [2] = details: cited from earlier work; remark: listed apart in the source
Orai1/STIM1 = biological target: T1, Orai1/STIM1 (Homo sapiens, UniProt Q96D31); experiment: Fluorescence-based assay of store-operated calcium entry in Orai1/STIM1 stable cells; format: cell-based; details: HEK-293 cells stably expressing human STIM1 and Orai1; 50% inhibition of Peak-Basal fluorescence signal; read-out: Orai1/STIM1 (IC50, μmol)
T1 construct: expressed in transfected cells
Outline: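 HEK-293 cells stably co-expressing human STIM1 and Orai1, loaded with 1.5 μM fluo-4-AM for 1 h at RT. Compounds were preincubated 30 min at RT in Ca²⁺-free HBSS, then entry was triggered with a 10× CaCl2 (10 mM) addition and read on FLIPR. IC50 is 50% inhibition of peak minus basal fluorescence.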

RBL-2H3 cells = experiment: Fluorescence-based assay of store-operated calcium entry in RBL-2H3 cells; format: cell-based, rat; details: Rattus norvegicus, RBL-2H3; thapsigargin; 50% inhibition of Upslope; read-out: RBL-2H3 (IC50, μmol)
Outline: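 Fluo-4-loaded RBL-2H3 cells in Ca2+-free HBSS got compound for 5 min at RT, then thapsigargin (1 μM final, from 5.5× stock) for 25 min. Calcium (1 mM final, from 12× stock) was then added and fluorescence read by FLIPR; Upslope = signal 7 s after addition minus baseline, IC50 = 50% Upslope inhibition.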

T1 sequence (Q96D31 whole entry): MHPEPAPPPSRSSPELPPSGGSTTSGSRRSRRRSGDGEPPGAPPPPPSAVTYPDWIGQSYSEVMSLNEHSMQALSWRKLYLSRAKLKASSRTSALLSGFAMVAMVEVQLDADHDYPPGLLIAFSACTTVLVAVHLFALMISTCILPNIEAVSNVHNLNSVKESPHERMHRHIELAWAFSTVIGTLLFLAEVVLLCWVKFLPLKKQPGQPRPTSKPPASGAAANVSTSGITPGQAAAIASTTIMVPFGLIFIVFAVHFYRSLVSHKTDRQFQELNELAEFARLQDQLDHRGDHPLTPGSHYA
Sequence of STIM1 and Orai1 (Q96D31 whole entry, species assumed): as the sequence (Q96D31 whole entry) above

| SMILES | store-operated Ca2+ entry (STIM1 and Orai1) | SOCE (Jurkat cells [1]) | proliferation (Jurkat cells [2]) | IC50 (Orai1/STIM1) [nM] | IC50 (RBL-2H3 cells) [nM] |
| --- | --- | --- | --- | --- | --- |
| NCCOB(c1ccccc1)c1ccccc1 [2-aminoethoxydiphenylborate] | completely blocked | – | – | – | – |
| Cc1nnsc1C(=O)Nc1ccc(-n2nc(C(F)(F)F)cc2C(F)(F)F)cc1 [BTP-2] | – | inhibits | inhibits | – | – |
| CCc1nn(-c2nccs2)cc1-c1cnc(NC(=O)c2c(F)cccc2F)cn1 [Example 38, N-(5-(3-ethyl-1-(thiazol-2-yl)-1H-pyrazol-4-yl)pyrazin-2-yl)-2,6-difluorobenzamide] | – | – | – | < 600 | < 600 |
| CCc1nn(-c2nccs2)cc1-c1ccc(NC(=O)c2ccccc2F)cc1 [Example 7, N-(4-(3-ethyl-1-(thiazol-2-yl)-1H-pyrazol-4-yl)phenyl)-2-fluorobenzamide] | – | – | – | < 600 | < 600 |
| Cc1nn(-c2nccs2)cc1-c1ccc(NC(=O)c2ccccc2F)cc1F [Example 11, 2-fluoro-N-(3-fluoro-4-(3-methyl-1-(thiazol-2-yl)-1H-pyrazol-4-yl)phenyl)benzamide] | – | – | – | < 600 | < 600 |
| Cc1nn(-c2nccs2)cc1-c1cnc(NC(=O)c2c(F)ccc(F)c2F)s1 [Example 67, 2,3,6-trifluoro-N-(5-(3-methyl-1-(thiazol-2-yl)-1H-pyrazol-4-yl)thiazol-2-yl)benzamide] | – | – | – | 600 to 1200 | < 600 |
| Cc1nn(-c2nccs2)cc1-c1ccc(NC(=O)c2c(F)cccc2F)cc1F [Example 10, 2,6-difluoro-N-(3-fluoro-4-(3-methyl-1-(thiazol-2-yl)-1H-pyrazol-4-yl)phenyl)benzamide] | – | – | – | < 600 | < 600 |
| Cc1cccc(F)c1C(=O)Nc1ccc(-c2cn(-c3nccs3)nc2C)cc1 [Example 3, 2-fluoro-6-methyl-N-(4-(3-methyl-1-(thiazol-2-yl)-1H-pyrazol-4-yl)phenyl)benzamide] | – | – | – | < 600 | < 600 |
